Measured values taken from the NIST ThermoML archive (doi:10.1021/je049672l).
Several values for one entry are separate records, joined by “and”; a condition that tells them apart may be missing. Equal values may be shown once.

Details: for mass density: Vibrating tube method; for vapor or sublimation pressure: Closed cell (Static) method

CCCC [butane]
Fluid (supercritical or subcritical phases)
Details	mass density [kg/m3]
240 K, 486 kPa	635.96
240 K, 1007.3 kPa	636.47
240 K, 1510.1 kPa	636.95
240 K, 2000.1 kPa	637.42
240 K, 2570.2 kPa	637.97
240 K, 3029.5 kPa	638.41
240 K, 3512.2 kPa	638.87
240 K, 4001.2 kPa	639.35
240 K, 4487.8 kPa	639.8
240 K, 5029 kPa	640.31
240 K, 5540.8 kPa	640.78
240 K, 5990.8 kPa	641.21
240 K, 6517.3 kPa	641.67
240 K, 7115.6 kPa	642.22
260 K, 481 kPa	615.74
260 K, 998.4 kPa	616.36
260 K, 1521.8 kPa	616.98
260 K, 2020.3 kPa	617.55
260 K, 2488.3 kPa	618.09
260 K, 3039.4 kPa	618.72
260 K, 3506.9 kPa	619.26
260 K, 3997 kPa	619.8
260 K, 4494.6 kPa	620.36
260 K, 5004.2 kPa	620.91
260 K, 5503.1 kPa	621.46
260 K, 6003.3 kPa	622.01
260 K, 6478.7 kPa	622.54
260 K, 6989.2 kPa	623.08
280 K, 144.7 kPa	593.92
280 K, 173.2 kPa	593.97
280 K, 493.9 kPa	594.44
280 K, 992 kPa	595.16
280 K, 1472.7 kPa	595.86
280 K, 1987.6 kPa	596.59
280 K, 2465.8 kPa	597.26
280 K, 2985.5 kPa	597.98
280 K, 3516.7 kPa	598.71
280 K, 3974.9 kPa	599.34
280 K, 4513.6 kPa	600.07
280 K, 4975 kPa	600.69
280 K, 5428.9 kPa	601.3
280 K, 5929.2 kPa	601.98
280 K, 6499.1 kPa	602.71
280 K, 7020 kPa	603.37
300 K, 268.9 kPa	571.14
300 K, 315.1 kPa	571.23
300 K, 493.4 kPa	571.55
300 K, 992.8 kPa	572.45
300 K, 1491.3 kPa	573.35
300 K, 2013.4 kPa	574.26
300 K, 2499.1 kPa	575.12
300 K, 2964 kPa	575.92
300 K, 3499.9 kPa	576.83
300 K, 3992.8 kPa	577.66
300 K, 4525.1 kPa	578.55
300 K, 4990.4 kPa	579.31
300 K, 5543.6 kPa	580.23
300 K, 5951.1 kPa	580.88
300 K, 6459.3 kPa	581.65
300 K, 7089.3 kPa	582.62
320 K, 515.9 kPa	546.74
320 K, 1002.9 kPa	547.89
320 K, 1502.7 kPa	549.06
320 K, 2011.8 kPa	550.22
320 K, 2517.1 kPa	551.36
320 K, 3010.6 kPa	552.45
320 K, 3523.1 kPa	553.55
320 K, 4015.6 kPa	554.6
320 K, 4017.2 kPa	554.6
320 K, 4513.3 kPa	555.64
320 K, 4992.8 kPa	556.63
320 K, 5473.8 kPa	557.6
320 K, 6031 kPa	558.74
320 K, 6510.5 kPa	559.67
320 K, 6982.1 kPa	560.62
340 K, 761.5 kPa	519.87
340 K, 791.7 kPa	519.97
340 K, 989.9 kPa	520.64
340 K, 1519.5 kPa	522.33
340 K, 1975.7 kPa	523.74
340 K, 2514.4 kPa	525.36
340 K, 3012.7 kPa	526.82
340 K, 3504.4 kPa	528.23
340 K, 4034.7 kPa	529.7
340 K, 4437.7 kPa	530.79
340 K, 4964.4 kPa	532.19
340 K, 5471 kPa	533.51
340 K, 5975.4 kPa	534.78
340 K, 6451.2 kPa	535.97
340 K, 7014.5 kPa	537.36
360 K, 1181.7 kPa	490.31
360 K, 1215.8 kPa	490.48
360 K, 1507.5 kPa	491.85
360 K, 2006.4 kPa	494.12
360 K, 2493.7 kPa	496.23
360 K, 2995.1 kPa	498.32
360 K, 3489.7 kPa	500.29
360 K, 3993.1 kPa	502.23
360 K, 4488.7 kPa	504.06
360 K, 4984.1 kPa	505.83
360 K, 5504.8 kPa	507.65
360 K, 5979.4 kPa	509.32
360 K, 6486.7 kPa	510.96
360 K, 7012.4 kPa	512.64
380 K, 1845.2 kPa	455.88
380 K, 1925.7 kPa	456.51
380 K, 2007.2 kPa	457.14
380 K, 2503.7 kPa	460.77
380 K, 3010.6 kPa	464.17
380 K, 3502 kPa	467.25
380 K, 3999.9 kPa	470.18
380 K, 4508.9 kPa	473
380 K, 5015.7 kPa	475.66
380 K, 5511.1 kPa	478.12
380 K, 6013.8 kPa	480.51
380 K, 6534.9 kPa	482.88
380 K, 6978 kPa	484.82

Liquid
Details	mass density	vapor or sublimation pressure
240 K	634.72 kg/m3 and 634.79 kg/m3	26.2 kPa and 23.9 kPa
260 K	615.48 kg/m3	59.9 kPa
280 K	593.89 kg/m3	131.5 kPa
300 K	571.03 kg/m3	256.4 kPa
320 K	546.56 kg/m3	454.8 kPa
340 K	520.07 kg/m3 and 519.84 kg/m3	750.5 kPa and 751 kPa
360 K	490.27 kg/m3 and 490.24 kg/m3	1168.5 kPa and 1168.1 kPa
380 K	455 kg/m3	1737.4 kPa
